Measured values published in PubChem BioAssay (NCI).
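Briefly, cells in 96-well plates were exposed to five compound concentrations for 48 h, and endpoints were estimated by linear interpolation. TGI: total growth inhibition.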

Legend:
Experiment in all cases: inhibition of tumour cell growth, NCI panel, 48 h
[1] = tested on: HT29 colon
[2] = tested on: U251 CNS
[3] = tested on: SNB-19 CNS
[4] = tested on: OVCAR-5 ovarian
[5] = tested on: NCI-H23 lung
[6] = tested on: EKVX NSCLC
[7] = tested on: MOLT-4 leukemia
[8] = tested on: HOP-62 NSCLC
[9] = tested on: KM12 colon
[10] = tested on: MDA-N
[11] = tested on: NCI-H460 lung
[12] = tested on: SK-MEL-5 melanoma
[13] = tested on: 786-0 renal
[14] = tested on: A549 NSCLC
[15] = tested on: HL-60(TB) leukemia
[16] = tested on: HOP-92 NSCLC
[17] = tested on: TK-10 renal
[18] = tested on: MCF7 breast
[19] = tested on: SNB-75 CNS
[20] = tested on: HCT-15 colon
[21] = tested on: M14 melanoma
[22] = tested on: PC-3 prostate
[23] = tested on: HS 578T breast
[24] = tested on: IGROV1 ovarian
[25] = tested on: HCT-116 colon
[26] = tested on: COLO 205 colon
[27] = tested on: A498 renal
[28] = tested on: OVCAR-8 ovarian
[29] = tested on: ACHN renal
[30] = tested on: SK-MEL-28 melanoma
[31] = tested on: MDA-MB-231 breast
[32] = tested on: NCI-H226 lung
[33] = tested on: T-47D breast
[34] = tested on: CCRF-CEM leukemia
[35] = tested on: BT-549 breast
[36] = tested on: SN12C renal
[37] = tested on: RPMI-8226 leukemia
[38] = tested on: UACC-257 melanoma
[39] = tested on: SK-MEL-2 melanoma
[40] = tested on: SW-620 colon
[41] = tested on: UACC-62 melanoma
[42] = tested on: UO-31 renal
[43] = tested on: HCC-2998 colon
[44] = tested on: RXF 393 renal
[45] = tested on: MALME-3M melanoma
[46] = tested on: K-562 leukemia
[47] = tested on: NCI-H522 lung
[48] = tested on: DU-145 prostate
[49] = tested on: MDA-MB-435
[50] = tested on: SF-268 CNS
[51] = tested on: SR leukemia
[52] = tested on: CAKI-1 renal
[53] = tested on: SF-539 CNS
[54] = tested on: SK-OV-3 ovarian
[55] = tested on: OVCAR-4 ovarian
[56] = tested on: LOX IMVI melanoma
[57] = tested on: OVCAR-3 ovarian
[58] = tested on: SF-295 CNS
[59] = tested on: NCI/ADR-RES ovarian

Measured: TGI

CCOC(=O)C1(C)CCc2sc(N)c(C#N)c21 (stereo unspecified)
not listed: [47] | [48] | [49] | [50] | [51] | [52] | [53] | [54] | [55] | [56] | [57] | [58] | [59]
> 100 µM: all other assays above

C=C1C(O)C23CCC4C(C(=O)O)(C(=O)O)CC(OC5OC(CO)C(O)C(OC(=O)CCc6ccccc6)C5NC(=O)CC(C)C)CC4(C)C2CCC1(O)C3 (stereo unspecified)
not listed: [18] | [59]
> 100 µM: all other assays above

CN1CCN(C(=S)N(C(=O)c2cccs2)C2CCCCC2)CC1
54.2 µM: [15]
> 10 µM: [7] | [34] | [58]
not listed: [6] | [8] | [22] | [25] | [27] | [52] | [53] | [54] | [59]
> 100 µM: all other assays above

CCCC1C(CC)C(NC)C(C#N)(C#N)C1(C#N)C#N (stereo unspecified)
43.1 µM: [29]
28.7 µM: [20]
26.6 µM: [26]
59 µM: [59]
29.2 µM: [8]
32.2 µM: [16]
31.9 µM: [27]
33.4 µM: [24]
58.9 µM: [28]
39.9 µM: [22]
87.6 µM: [6]
95.1 µM: [2]
34.3 µM: [13] | [50]
43.8 µM: [37]
94.3 µM: [30]
35.4 µM: [32]
32.9 µM: [43]
39.2 µM: [41]
46.8 µM: [5]
30 µM: [42]
63.8 µM: [45]
34.6 µM: [17]
35.7 µM: [39]
36.1 µM: [10] | [56]
28 µM: [44]
22.5 µM: [19]
27.6 µM: [1]
29 µM: [33]
41.9 µM: [58]
27.2 µM: [48]
82.3 µM: [51]
25.9 µM: [52]
34.5 µM: [36]
91.8 µM: [15]
30.1 µM: [25] | [31]
24.5 µM: [12]
33.3 µM: [47] | [38]
34.8 µM: [53]
76.9 µM: [7]
48.5 µM: [3]
30.9 µM: [9]
not listed: [11] | [35] | [57]
> 100 µM: all other assays above

Clc1ccc(-c2cc(-c3cc(-c4ccc(Cl)cc4)n[nH]3)[nH]n2)cc1
> 100 µM: [4] | [5] | [47] | [6] | [7] | [10] | [48] | [49] | [12] | [21] | [22] | [24] | [25] | [26] | [27] | [29] | [32] | [33] | [35] | [38] | [39] | [54] | [42] | [44] | [57] | [45] | [46]
